Measured values reported in patent US5321029A, “Xanthines” (Beecham-Wuelfing GmbH & Co.K.G., priority 1988, dated 1994).

target: c-AMP phosphodiesterase (erythrocytes); test: Inhibition of cyclic AMP phosphodiesterase (erythrocytes); type: biochemical; conditions: phosphodiesterase extracted from erythrocytes, phosphate buffer pH 7.4, radiochemical procedure
Procedure: The procedure used was that described by Arch, J. R. S. and Newsholme, E. A. in Biochem. J. 158, 603, (1976):
Erythrocytes were obtained from Na-citrate (16 mM; 0.1 ml/ml blood) anticoagulated blood by repeated centrifugation with removal of the buff coat and washing with an isotonic buffer (composition in mM: NaCl […], KCl 4, CACl2.2 H2 O 1.8, Na2 HPO4.12 H2 O 0.8, NaH2 PO4 0.2, MgSO4.7 H2 O 0.7, Hepes 3.4; pH 7.4).
The phosphodiesterase was extracted by mixing the erythrocytes with 4 volumes of 7 mM phosphate buffer, pH 7.4, followed by sonification (3×10 sec; 100 W) and then centrifuging for 30 min at 4200 x g.
All supernatants were diluted in the extraction medium and assayed for phosphodiesterase activity within 6 hours of preparation, using the radiochemical procedure described in the above mentioned reference.

Structure (SMILES) | Ki [nM]
O=c1c2[nH]cnc2n(CC2CC2)c(=O)n1CC1CC1 [Example 1, 1,3-Di-cyclopropylmethyl xanthine] | 5700
O=c1c2[nH]cnc2n(CC2CCCC2)c(=O)n1CC1CCCC1 [Example 3, 1,3-Di-cyclopentylmethyl xanthine] | 3700
CC(=O)Cn1cnc2c1c(=O)n(CC1CCCCC1)c(=O)n2CC1CCCCC1 [Example 8, 1,3-Di-cyclohexylmethyl-7-(2-oxopropyl)-xanthine] | 2300
CC(O)Cn1cnc2c1c(=O)n(CC1CCCC1)c(=O)n2CC1CCCC1 (stereo not drawn) [Example 9, 1,3-Di-cyclopentylmethyl-7-(2-hydroxypropyl)-xanthine] | 26600
CC(=O)Cn1cnc2c1c(=O)n(C1CCCCC1)c(=O)n2C1CCCCC1 [Example 11, 1,3-Di-cyclohexyl-7-(2-oxopropyl)-xanthine] | 2400
CC(O)Cn1cnc2c1c(=O)n(CC1CCC1)c(=O)n2CC1CCC1 (stereo not drawn) [Example 12, 1,3-Di-cyclobutylmethyl-7-(2-hydroxypropyl)-xanthine] | 13500
CCCn1cnc2c1c(=O)n(CC1CC1)c(=O)n2CC1CC1 [Example 14, 1,3-Di-cyclopropylmethyl-7-n-propyl xanthine] | 5270
CCCn1cnc2c1c(=O)n(CC1CCC1)c(=O)n2CC1CCC1 [Example 15, 1,3-Di-cyclobutylmethyl-7-n-propyl xanthine] | 2400
O=c1c2c(ncn2CC2CC2)n(CC2CC2)c(=O)n1CC1CC1 [Example 16, 1,3,7-Tri-cyclopropylmethyl-xanthine] | 2300
O=c1c2[nH]cnc2n(C2CCCC2)c(=O)n1CC1CC1 [Example 18, 1-(Cyclopropylmethyl)-3-cyclopentylxanthine] | 8400
CC(=O)Cn1cnc2c1c(=O)n(CC1CC1)c(=O)n2CC1CCCCC1 [Example 19, 1-(Cyclopropylmethyl)-3-(cyclohexylmethyl)-7-(2-oxopropyl)xanthine] | 2300
O=c1c2[nH]cnc2n(CC2CCCCC2)c(=O)n1CC1CC1 [Example 22, 1-(Cyclopropylmethyl)-3-(cyclohexylmethyl)xanthine] | 23000

Compounds with a lower Ki, results first:

Ki [nM] | Structure (SMILES)
2200 | O=c1c2[nH]cnc2n(CC2CCC2)c(=O)n1CC1CCC1 [Example 2, 1,3-Di-cyclobutylmethyl xanthine]
2000 | CC(=O)Cn1cnc2c1c(=O)n(CC1CC1)c(=O)n2C1CCCC1 [Example 20, 1-(Cyclopropylmethyl)-3-cyclopentyl-7-(2-oxopropyl)-xanthine]
1700 | O=c1c2[nH]cnc2n(CC2CCCCC2)c(=O)n1CC1CCCCC1 [Example 4, 1,3-Di-cyclohexylmethyl xanthine]
1700 | O=c1c2[nH]cnc2n(C2CCC2)c(=O)n1C1CCC1 [Example 13, 1,3-Di-cyclobutyl-xanthine]
1400 | CC(=O)Cn1cnc2c1c(=O)n(CC1CC1)c(=O)n2CC1CC1 [Example 5, 1,3-Di-cyclopropylmethyl-7-(2-oxopropyl)-xanthine]
1300 | CC(=O)Cn1cnc2c1c(=O)n(CC1CCCC1)c(=O)n2CC1CCCC1 [Example 7, 1,3-Di-cyclopentylmethyl-7-(2-oxopropyl)-xanthine]
800 | O=c1c2[nH]cnc2n(C2CCCCC2)c(=O)n1C1CCCCC1 [Example 10, 1,3-Di-cyclohexyl xanthine]
150 | CC(=O)Cn1cnc2c1c(=O)n(CC1CCC1)c(=O)n2CC1CCC1 [Example 6, 1,3-Di-cyclobutylmethyl-7-(2-oxopropyl)-xanthine]

system: hippocampal CA1 field neuronal damage; test: Delayed neuronal death in gerbils after transient forebrain ischaemia; type: in vivo, gerbil; conditions: 5.0 mg/kg i.p.; conclusion in words
Procedure: Ischaemia was produced in adult male gerbils by occlusion of both common carotid arteries for 3 minutes under halothane/nitrous oxide anaesthesia. During surgery the animals were placed upon a warming blanket. The ischaemia led to neuronal degeneration and to disturbed brain function.
Brains were removed 2 weeks later and 12 μm thick coronal slices were examined light microscopically for neuronal degeneration.
Three groups of animals were used:
2. solvent-treated ligated controls
3. compound-treated ligated animals
The compound was administered 1 hour before the ligation period.
Means±SEM (n) of histopathological score [HPS] which reflects the degree of neuronal damage in the hippocampal CA1 field: […]

Structure (SMILES) | Prevention of ischaemia induced neuronal degeneration
O=c1c2[nH]cnc2n(CC2CC2)c(=O)n1CC1CC1 [Example 1, 1,3-Di-cyclopropylmethyl xanthine] | significantly prevented ischaemia induced neuronal degeneration
